Data as given in US20090142304A1, “Composition for Improving Intestinal Flora” (priority 2005, published 2009).

Key:
Format in all cases: in vivo
[1] = tested on: Bifidobacterium; assay: Growth effect on Bifidobacterium in human feces by intake of Meioligo P (Example 2); settings: fed as Meioligo P 3 g per day (1.05 g 1-kestose)
Excerpt: (§1) Quantitative determination of intestinal lactic acid bacteria counts can be carried out by a conventional method. For example, the lactic acid bacteria counts can be quantitatively determined according to the Mitsuoka's method (Mitsuoka Tomotari, “Chounaikin no Sekai (The World of Intestinal Bacteria)”, Sobunsha Co., Ltd., Tokyo, p. 53-65) by sampling feces of a tested subject. The intestinal Bifidobacterium count can be similarly quantitatively determined.
(§2) As a sample composition, Meioligo P (Trade Name) (Meiji Seika Kaisha), which was a composition containing 35% of 1-kestose, 55% of nystose and 10% of fructo-furanosyl nystose, was used.
(§3) In a test, each 3 g per day of the sample composition (1.05 g based on the weight of 1-kestose) was fed orally for 2 months to 7 healthy female test subjects in the age range of 19 to 41 years. Samples of the feces of the respective subjects were then collected just before the start of intake (week 0), 2 weeks after the start of intake (week 2) and 2 weeks after the end of intake (week 4), and the lactic acid bacteria count and the Bifidobacterium count in the samples were quantitatively determined similarly to Example 1.
(§4) The changes of the lactic acid bacteria count and the Bifidobacterium count in the feces by the intake of 1-kestose with respect to the 7 subjects are shown in the Figures.

[2] = tested on: Lactobacillus sp.; assay: Growth effect on lactic acid bacteria in human feces by intake of Meioligo P (Example 2)
Excerpt: as §1, §2, §3, §4

[3] = tested on: lactic acid bacteria belonging to genus Lactobacillus; assay: Growth effect on lactic acid bacteria in human intestine by intake of 1-kestose (Example 1, fecal count, Mitsuoka method)
Excerpt: as §1
(§5) A sample composition containing 99.4% of 1-kestose, 0.15% of acesulfame potassium, 0.32% of sucralose and 0.13% of Sweetness Enhancer ME-2208T (Trade Name) (Firmenich SA) was used (all by % by weight).
In a test, each 10 g per day of the sample composition was fed orally for 2 months to 7 male and female test subjects with mild diabetes in the age range of 20 to 70 years. Samples of the feces of the respective subjects were collected just before the start of intake (month 0), 2 months after the start of intake (month 2) and 1 month after the end of intake (month 3), and the lactic acid bacteria counts in the samples were quantitatively determined by the method of Mitsuoka (Mitsuoka Tomotari “Chounaikin no Sekai (The World of Intestinal Bacteria)” Sobunsha Co., Ltd., Tokyo, p. 53-65). Similarly, the Bifidobacterium counts in the samples were quantitatively determined.
By 5 out of the subjects 7, lactic acid bacteria belonging to genus Lactobacillus were detected at 10^6 CFU/g-feces or higher, and the changes of the lactic acid bacteria count and the Bifidobacterium count by the intake of 1-kestose with respect to the 5 subjects are shown in the Figures.

[4] = tested on: Bifidobacterium; assay: Growth effect on Bifidobacterium in human feces by intake of 1-kestose (Example 1); settings: 10 g per day orally for 2 months, 5 mild diabetes subjects
Excerpt: as §1, §5
In a test, each 10 g per day of the sample composition was fed orally for 2 months to 7 male and female test subjects with mild diabetes in the age range of 20 to 70 years. Samples of the feces of the respective subjects were collected just before the start of intake (month 0), 2 months after the start of intake (month 2) and 1 month after the end of intake (month 3), and the lactic acid bacteria counts in the samples were quantitatively determined by the method of Mitsuoka (Mitsuoka Tomotari “Chounaikin no Sekai (The World of Intestinal Bacteria)” Sobunsha Co., Ltd., Tokyo, p. 53-65). Similarly, the Bifidobacterium counts in the samples were quantitatively determined. […]

## OC[C@H]1O[C@@](CO)(OC[C@@]2(O[C@H]3O[C@H](CO)[C@@H](O)[C@H](O)[C@H]3O)O[C@H](CO)[C@@H](O)[C@@H]2O)[C@@H](O)[C@@H]1O [1-kestose]
[1]; 7 healthy female subjects
  subjects in whom the Bifidobacterium count was increased: 6 out of the 7
[1]; 7 healthy females
  increase of mean Bifidobacterium count, after vs before the intake: about 2 fold
[2]; fed as Meioligo P 3 g per day (1.05 g 1-kestose), 7 healthy females
  increase of mean Lactobacillus sp. count, after vs before the intake: about 20 fold
[2]; fed as Meioligo P 3 g per day (1.05 g 1-kestose), the 4 subjects with increase
  increase of Lactobacillus sp. count in each of the 4 subjects with increase: ≥ 10 fold
[2]; fed as Meioligo P (35% 1-kestose, 55% nystose, 10% fructo-furanosyl nystose), 3 g per day (1.05 g 1-kestose) orally, 7 healthy female subjects
  subjects in whom the count of Lactobacillus sp. was increased by intake: 4 out of 7
[3]; 10 g per day orally for 2 months, 5 mild diabetes subjects
  increase of mean Lactobacillus sp. count, after vs before the intake: about 10 fold
[3]; human whose lactic acid bacteria count in the feces is ≧10^6 CFU/g or higher (Example 1)
  effect of the composition containing 1-kestose by lactic acid bacteria count in the feces: stronger
[3]; sample composition 99.4% 1-kestose, 10 g per day orally for 2 months, subjects with mild diabetes with Lactobacillus at 10^6 CFU/g-feces or higher (5 of 7)
  subjects in whom the count of Lactobacillus sp. was increased by intake: 4 out of the 5
[4]
  increase of mean Bifidobacterium count, after vs before the intake: about 7 fold
[4]; sample composition 99.4% 1-kestose
  subjects in whom the Bifidobacterium count was increased: all of 5
